The values that follow come from patent publication US8288393B2, “Nitrogen-containing heterocyclic compound and pest control agent” (Nippon Soda Co., Ltd., priority 2007, dated 2012).

The test system of one series is Spodoptera litura. The series can be described thus: Efficacy against Spodoptera litura (cabbage leaf dip). Type of series: in vivo. As to conditions: 125 ppm emulsion, cabbage leaves immersed, 2nd instar larvae, 25° C., 5 days later. On the procedure: (§1) The emulsion indicated in the aforementioned Preparation Example 2 was diluted with water to a compound concentration of 125 ppm in accordance with the formula thereof. After immersing cabbage leaves in the chemical liquid for 30 seconds and allowing to air dry, the cabbage leaves were placed in a Petri dish lined with filter paper and inoculated with five 2nd instar Spodoptera litura larvae. A glass cover was placed over the Petri dish, the dish was placed in a constant temperature chamber at a temperature of 25° C. and humidity of 65%, and viability was investigated 5 days later followed by determination of insect mortality rate. The test was repeated twice.

Series [1] has as its system Tetranychus urticae resistant to organic phosphorous agents. The series can be described thus: Efficacy against Tetranychus urticae (spray on kidney bean plants). The class given is in vivo. The note with it: 125 ppm wettable powder sprayed on kidney bean plants, female adults, 25° C., 3 days later. An excerpt:
After inoculating the first true leaves of kidney bean plants planted in a no. 3 pot for which 7 to 10 days had elapsed since germination with female adult Tetranychus urticae resistant to organic phosphorous agents, a chemical liquid diluted with water to a compound concentration of 125 ppm was sprayed onto the kidney bean plants in accordance with the formula of the wettable powder indicated in the aforementioned Preparation Example 1. The kidney bean plants were placed in a constant temperature chamber at a temperature of 25° C. and humidity of 65% and insect mortality rate was investigated 3 days later. The test was repeated twice.

Another series concerns Pseudaletia separata. The series is described as follows: Efficacy against Pseudaletia separata (corn leaf dip). The class given is in vivo. As to conditions: 125 ppm wettable powder, corn leaves immersed, 2nd instar larvae, 25° C., 5 days later. On the procedure:
as §1, with “The wettable powder” for “The emulsion”, “Example 1” for “Example 2”, “immersing corn” for “immersing cabbage”, “the corn” for “the cabbage”, “instar Pseudaletia separata” for “instar Spodoptera litura”

For a further series, the system named is Aphis gossypii. The series can be described thus: Efficacy against Aphis gossypii (spray on infested cucumber plants). The class given is in vivo. As to conditions: 125 ppm emulsion sprayed on cucumber plants infested with nymphs, 25° C., 5 days later. The text has this:
Cucumber plants planted in a no. 3 pot for which 10 days had elapsed since germination were inoculated with adult Aphis gossypii. The adult insects were removed after 1 day, and a chemical liquid diluted with water to a compound concentration of 125 ppm was sprayed onto the cucumber plants infested with nymphs laid by the adults in accordance with the emulsion formula indicated in the aforementioned Preparation Example 2. The cucumber plants were placed in a constant temperature chamber at a temperature of 25° C. and humidity of 65% and insect viability was investigated 5 days later followed by determination of insect mortality rate. The test was repeated twice.

For another series, the system named is Culex pipiens molestus. The series can be described thus: Efficacy against Culex pipiens molestus (larvae in water). The note with it: in vivo. On the procedure:
0.225 ml of distilled water containing 10 Culex pipiens molestus larvae 1 day after hatching and aquarium fish food (TetraMin, Tetra Japan) were placed in a 0.3 ml polystyrene test container.
The compounds were prepared as 1% solutions using DMSO (containing 0.5% Tween 20), and further diluted to 0.01% with distilled water. 0.025 ml of the diluted chemical liquid were added to the test container containing the Culex pipiens molestus larvae followed by stirring (final compound concentration: 0.001%).
Insect mortality rates were invested 2 days after allowing to stand at 25° C. The test was repeated twice.

Turning to `Cc1cc(Cl)ccc1N=CN(C)C` [chlordimeform], the insect mortality rate (in the series with Spodoptera litura; in series [1]; in the series with Pseudaletia separata) was 40% throughout.

Consider `Cc1nc(N(C)C)nc(OC(=O)N(C)C)c1C` [pirimicarb], for which the insect mortality rate in the series with Aphis gossypii was 9%.

Molecule “N-{[5-(3,5-dichlorophenyl)-5-trifluoromethyl-4,5-dihydroisoxazol-3-yl]indan-1-yl}-propionic acid amide [1-6]” gave an insect mortality rate in the series with Culex pipiens molestus of at least 90%.
